Assay results reported in US20190030018A1 (Celgene Corporation, priority 2017, published 2019).

How the values were obtained:
Assay in all cases: In vitro combination studies, CellTitre-Glo cell viability
HL-60 = settings: HL-60; in combination with Compound 1
MOLM-13 = settings: MOLM-13; in combination with Compound 1
F-36-P = settings: F-36-P; in combination with Compound 1
HNT-34 = settings: HNT-34; in combination with Compound 1
KG-1 = settings: KG-1; in combination with Compound 1
NOMO-1 = settings: NOMO-1; in combination with Compound 1
MV-4-11 = settings: MV-4-11; in combination with Compound 1
OCI-AML-2 = settings: OCI-AML-2; in combination with Compound 1
ML-2 = settings: ML-2; in combination with Compound 1
OCT-AML-3 = settings: OCI-AML-3; in combination with Compound 1

Structure (SMILES) | Synergy analysis for combinations with Compound 1 (HL-60) | Synergy analysis for combinations with Compound 1 (MOLM-13) | Synergy analysis for combinations with Compound 1 (F-36-P) | Synergy analysis for combinations with Compound 1 (HNT-34) | Synergy analysis for combinations with Compound 1 (KG-1) | Synergy analysis for combinations with Compound 1 (NOMO-1) | Synergy analysis for combinations with Compound 1 (MV-4-11) | Synergy analysis for combinations with Compound 1 (OCI-AML-2) | Synergy analysis for combinations with Compound 1 (ML-2) | Synergy analysis for combinations with Compound 1 (OCT-AML-3)
COc1ccc(-c2ccc3c(N4CCOC[C@@H]4C)nc(N4CCOC[C@@H]4C)nc3n2)cc1CO [AZD8055] | No | Yes | Yes | No | No | Yes | No | Yes | No | Yes
CO[C@H]1/C=C\C=C(/C)C(=O)NC2=CC(=O)C(NCCN(C)C)=C(C[C@@H](C)C[C@H](OC)[C@H](O)[C@@H](C)/C=C(\C)[C@@H]1OC(N)=O)C2=O [Alvespimycin] | No | No | No | No | No | No | Yes | Yes | No | No
CCN1C(=O)CNc2ncc(-c3ccc(-c4nc[nH]n4)nc3C)nc21 [CC-115, 1-ethyl-7-(2-methyl-6-(1H-1,2,4-triazol-3-yl)pyridin-3-yl)-3,4-dihydropyrazino[2,3-b]pyrazin-2(1H)-one, reference compound] | No | Yes | Yes | Yes | No | Yes | Yes | Yes | Yes | Yes
CO[C@H]1CC[C@H](N2C(=O)CNc3ncc(-c4ccc(C(C)(C)O)nc4)nc32)CC1 [CC-223, 7-(6-(2-hydroxypropan-2-yl)pyridin-3-yl)-1-((trans)-4-methoxycyclohexyl)-3,4-dihydropyrazino[2,3-b]pyrazin-2(1H)-one, reference compound] | No | Yes | Yes | No | No | Yes | Yes | Yes | Yes | Yes
CC(C)C[C@H](NC(=O)[C@@H](NC(=O)c1cccc(-c2ccccc2)n1)[C@@H](C)O)B(O)O [CEP-18770] | No | No | No | No | No | No | No | No | No | No
CC(C)C[C@H](NC(=O)[C@H](CCc1ccccc1)NC(=O)CN1CCOCC1)C(=O)N[C@@H](Cc1ccccc1)C(=O)N[C@@H](CC(C)C)C(=O)[C@@]1(C)CO1 [Carfilzomib] | No | No | No | No | No | No | No | No | No | No
Cn1cc(-c2cc(S(C)(=O)=O)ccc2OCC2CC2)c2ccccc2c1=O [Compound A, 4-[2-(cyclopropylmethoxy)-5-(methanesulfonyl)phenyl]-2-methylisoquinolin-1(2H)-one, reference compound] | No | Yes | Yes | No | No | Yes | No | Yes | Yes | Yes
COc1ccc(-c2c(-c3ccc(C#N)c(F)c3)nc(N3CCC(N)CC3)n(C)c2=O)cc1F [Compound B, 4-[2-(4-amino-piperidin-1-yl)-5-(3-fluoro-4-methoxy-phenyl)-1-methyl-6-oxo-1,6-dihydropyrimidin-4-yl]-2-fluoro-benzonitrile, reference compound] | No | Yes | Yes | No | No | No | No | No | No | No
C[C@@H]1C[C@H]2[C@@H]3CCC4=CC(=O)C=C[C@]4(C)[C@@]3(F)[C@@H](O)C[C@]2(C)[C@@]1(O)C(=O)CO [Dexamethason] | No | No | No | No | No | Yes | No | No | No | No
CC(C)C[C@H](NC(=O)CNC(=O)c1cc(Cl)ccc1Cl)B(O)O [Ixazomib] | No | No | No | No | No | No | No | No | No | No
CC(C)n1nc(-c2ccc3oc(N)nc3c2)c2c(N)ncnc21 [MLN-0128] | No | Yes | Yes | No | No | No | No | Yes | No | No
